Residue numbers refer to the chain shown, from its start.
Columns and labels:
[1] = system: AHR; design: method as in PMID 33260776; conditions: 10 nM, H9 cells; two genes less expressed, 14 higher expressed; cited from earlier work
[2] = system: AHR; design: method as in PMID 33230523; conditions: human cells overexpressing either AHR version; cited from earlier work
[3] = biological target: T1, AHR^V381 (Homo sapiens, UniProt P35869); conditions: AHR^V381 cells, 4 h
T1 sequence (P35869 11-848): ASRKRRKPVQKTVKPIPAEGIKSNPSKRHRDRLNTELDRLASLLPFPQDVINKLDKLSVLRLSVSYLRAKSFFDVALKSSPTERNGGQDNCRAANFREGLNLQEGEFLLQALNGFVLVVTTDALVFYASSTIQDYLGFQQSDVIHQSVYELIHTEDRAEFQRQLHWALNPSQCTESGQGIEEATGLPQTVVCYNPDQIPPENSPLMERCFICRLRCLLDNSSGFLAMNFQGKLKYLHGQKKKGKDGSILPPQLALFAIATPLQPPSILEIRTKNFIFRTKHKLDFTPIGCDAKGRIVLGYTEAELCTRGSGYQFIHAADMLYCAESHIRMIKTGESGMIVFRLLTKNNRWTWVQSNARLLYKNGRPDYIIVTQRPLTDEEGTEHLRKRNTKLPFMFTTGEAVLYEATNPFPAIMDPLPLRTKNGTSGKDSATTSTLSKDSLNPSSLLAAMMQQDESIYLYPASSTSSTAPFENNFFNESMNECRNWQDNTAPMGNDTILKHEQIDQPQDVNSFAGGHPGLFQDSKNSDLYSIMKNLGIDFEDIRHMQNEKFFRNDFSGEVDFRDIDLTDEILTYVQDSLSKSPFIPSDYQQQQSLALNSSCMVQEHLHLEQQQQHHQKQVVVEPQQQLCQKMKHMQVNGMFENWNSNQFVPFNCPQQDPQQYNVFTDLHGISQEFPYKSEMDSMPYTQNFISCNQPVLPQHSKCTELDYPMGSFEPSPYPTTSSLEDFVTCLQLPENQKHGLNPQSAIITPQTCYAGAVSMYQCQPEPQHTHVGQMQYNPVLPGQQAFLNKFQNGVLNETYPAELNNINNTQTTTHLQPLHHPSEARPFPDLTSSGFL
Procedure: We incubated the cells with different concentrations of AHR ligands and measured CYP1A1 and CYP1B1 mRNA levels after 4 h.
Error bars show SDs of four independent ligand treatments. qPCR were performed in triplicates.
AHR, CYP1A1 and CYP1B1 relative quantification and ligand assays
were purchased from Sigma-Aldrich, dissolved in DMSO (Invitrogen, D12345) to generate stocks 2000x
the final concentrations used in the ligand assays and stored at -20°C.
Four days prior to cell harvest, a single cell solution was prepared with Accutase and the cells were
3000 cells per well were seeded in 96 well plates
and cultured under normal cell culture conditions for four days, with the last media change 24h before cell
harvest. Ligands were added to a final concentration of 0.05% DMSO in the culture medium for four hours
similar to other work (13-15). Cell harvest, reverse transcription and quantitative real-time PCR was […]
for several samples also AHR was measured in a 20 µl multiplexed quantitative PCR reaction with 10 µl […]
GUSB) or Thermo Fisher Scientific (CYP1B1, AHR), sequences: Suppl, Table S1). Quantitative PCR was […]
5 min, 45x (95 °C 5 s, 60 °C 15 s, 72 °C 15 s, plate read). […]
Cq values were determined with Bio-Rad Laboratories’ CFX-Manager (version 3.1) and relative […]
gene in untreated wild type cells. The data were plotted and analyzed using GraphPad Prism (version 8.4.3). […]

[4] = biological target: T2, AHR^A381 (Homo sapiens, UniProt P35869, V381A); conditions: 5 µM, 4 h
T2 sequence (P35869 11-848 V381A): T1 sequence (P35869 11-848) with V371A
Text: (§1) the manufacturer's instructions.
(§2) manufacturer’s instructions.

[5] = biological target: T1, AHR^V381; assay: RNA sequencing of treated versus mock-treated AHR^V381-expressing H9 cells; assay type: cell-based; design: they had not been changed in the editing process; endogenous in cells; host or cells: H9 human embryonic stem cells, a pool of 13 control clones that went through editing but remained wild type; conditions: 5 µM, 4 h
Text: as §1, §2

Clc1cc2c(cc1Cl)Oc1cc(Cl)c(Cl)cc1O2 [2,3,7,8-Tetrachlorodibenzo-p-dioxin]
number of the 117 differentially expressed genes affected by TCDD exposure [1]: 16 genes
difference between the two AHR forms in induction of CYP1A1 [2]: no differences

c1ccc2c(c1)cc1ccc3cccc4ccc2c1c34 [Benzo(a)pyrene]
concentration at which CYP1A1 and CYP1B1 mRNA levels are slightly induced [3]: 1000 nM

Cc1ccccc1N=Nc1ccc(NC(=O)c2ccnn2C)c(C)c1 [CH-223191]
number of the 117 genes differing between AHR^A381 and AHR^V381 cells that change expression upon inhibitor treatment [4]: 20 genes
number of the 117 genes differing between AHR^A381 and AHR^V381 cells that change expression upon inhibitor treatment [5]: none
target gene expression upon inhibitor treatment [5]: tends to be further reduced upon treatment with the inhibitor, albeit not significantly so

— article PMC11145187 (Proceedings of the National Academy of Sciences of the …, 2024)
